Measured values as given in patent publication US20060029674A1, “Stable amorphous Cefdinir” (priority 2004, published 2006).

Columns and labels:
[1] = Glass transition temperature (Tg) by thermally stimulated current spectroscopy; type: physicochemical
Experimental: The glass transition temperature (Tg) determined by thermally stimulated current spectroscopy was 67° C. This value of 67° C. is considerably higher than ambient temperature, and as a rule of thumb high Tg values are desirable for room temperature stability.
The glass transition temperature (Tg) determined by thermally stimulated current spectroscopy was 102° C. […] The higher Tg observed for the cefdinir-EPO sample relative to the individual components further confirms specific interaction.
The glass transition temperature (Tg) determined by thermally stimulated current spectroscopy was 95° C.

[2] = Physical stability of the isolated amorphous material; type: physicochemical; conditions: isolated by evaporating a methanolic solution
Excerpt: Amorphous Cefdinir was isolated by evaporating a methanolic solution of cefdinir hydrate. […] Stable amorphous Cefdinir with Eudragit EPO was made and isolated by evaporating a methanolic solution. […] Amorphous cefdinir with PVP was made and isolated by evaporating a methanolic solution.

[3] = material taught in U.S. Pat. No. 4,559,334; cited from earlier work

SMILES | glass transition temperature (Tg) [1] | physical stability of the amorphous material [2] | stability of prior-art amorphous material [3]
C=CC1=C(C(=O)O)N2C(=O)C(NC(=O)C(=NO)c3csc(N)n3)[C@H]2SC1 (single isomer, unassigned) [Amorphous Cefdinir, 7-[2-(2-aminothiazol-4-yl)-2-hydroxyiminoacetamido]-3-vinyl-3-cephem-4-carboxylic acid (syn isomer)] | 67 °C | physically stable | 
C=CC1=C(C(=O)O)N2C(=O)[C@@H](NC(=O)/C(=N\O)c3csc(N)n3)[C@H]2SC1 [crystalline-like amorphous material] |  |  | unstable
